Data on eleven compounds can be found in PubChem BioAssay AID1388 (Sanford-Burnham Center for Chemical Genomics, 2008).

Activity calls are given as the source filed them.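 How the source made its calls: active means no detectable phosphorylated eIF2 alpha band on the immunoblot of stressed cell lysates; inactive means phospho eIF2 alpha band still visible on the blot.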

Chain of Eukaryotic translation initiation factor 2 subunit 1 (Rattus norvegicus) (P68101 whole entry, looked up): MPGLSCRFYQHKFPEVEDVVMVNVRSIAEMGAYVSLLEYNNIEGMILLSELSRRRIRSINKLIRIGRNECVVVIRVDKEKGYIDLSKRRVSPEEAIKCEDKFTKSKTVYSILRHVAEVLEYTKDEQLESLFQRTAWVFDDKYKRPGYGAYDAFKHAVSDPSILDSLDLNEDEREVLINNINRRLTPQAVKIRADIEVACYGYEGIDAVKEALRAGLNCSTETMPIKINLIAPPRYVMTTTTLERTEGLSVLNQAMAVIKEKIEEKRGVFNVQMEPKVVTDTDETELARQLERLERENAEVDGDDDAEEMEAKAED

This experiment addresses Eukaryotic translation initiation factor 2 subunit 1 (Rattus norvegicus) (UniProt P68101). Kind of experiment: inhibition of eIF2α phosphorylation under ER stress, late-stage follow-up, mechanism study for ER stress cell death project, cell-based, thapsigargin, Western blot (AID 1388). The note with it: CSM14.1 cells, phospho-eIF2a Western blot. Background: A western blot detects proteins with antibodies after separation by electrophoresis.
Turning to `CCOc1cccc(C2Nc3ccccc3NC3=C2C(=O)CC(c2ccc(OC)cc2)C3)c1` (stereo unspecified), the result was inactive.
Next, `CSc1ccc(C2Nc3ccccc3NC3=C2C(=O)CC(c2ccccc2)C3)cc1` (stereo unspecified): “inactive”; `COc1ccc(C2CC(=O)C3=C(C2)Nc2ccccc2NC3c2cccc(Oc3ccccc3)c2)cc1OC` (stereo unspecified): “inactive”; `CCOc1cc(C2Nc3ccccc3NC3=C2C(=O)CC(c2ccc(OC)cc2)C3)cc(Cl)c1O` (stereo unspecified): “inactive”.
As for `COc1ccc(C2CC(=O)C3=C(C2)Nc2ccccc2NC3c2cc(C)ccc2C)cc1` (stereo unspecified), the outcome was inactive.
`COc1ccc(C2CC(=O)C3=C(C2)Nc2ccccc2NC3c2cccc(C(F)(F)F)c2)cc1OC` (stereo unspecified): the result was inactive.
As for `COc1ccc(C2CC(=O)C3=C(C2)Nc2ccccc2NC3c2cccc(Br)c2)cc1OC` (stereo unspecified), the result was inactive.
As for `COc1ccc(C2CC(=O)C3=C(C2)Nc2ccccc2NC3c2ccccc2C(F)(F)F)cc1OC` (stereo unspecified), the result was inactive.
For the compound `CC1(C)CC(=O)C2=C(C1)Nc1ccccc1NC2c1ccc(-c2ccccc2)cc1` (stereo unspecified), the result was inactive.
To `CCCOc1ccc(C2Nc3ccccc3NC3=C2C(=O)CC(c2ccc(OC)c(OC)c2)C3)cc1` (stereo unspecified) belongs “inactive”.
Next, `O=C1CC(c2ccccc2)CC2=C1C(c1c(F)cccc1Cl)Nc1ccccc1N2` (stereo unspecified): “inactive”.
